For one test, the target named is T1, AXL (Homo sapiens, UniProt P30530).
T1 sequence (P30530 26-894): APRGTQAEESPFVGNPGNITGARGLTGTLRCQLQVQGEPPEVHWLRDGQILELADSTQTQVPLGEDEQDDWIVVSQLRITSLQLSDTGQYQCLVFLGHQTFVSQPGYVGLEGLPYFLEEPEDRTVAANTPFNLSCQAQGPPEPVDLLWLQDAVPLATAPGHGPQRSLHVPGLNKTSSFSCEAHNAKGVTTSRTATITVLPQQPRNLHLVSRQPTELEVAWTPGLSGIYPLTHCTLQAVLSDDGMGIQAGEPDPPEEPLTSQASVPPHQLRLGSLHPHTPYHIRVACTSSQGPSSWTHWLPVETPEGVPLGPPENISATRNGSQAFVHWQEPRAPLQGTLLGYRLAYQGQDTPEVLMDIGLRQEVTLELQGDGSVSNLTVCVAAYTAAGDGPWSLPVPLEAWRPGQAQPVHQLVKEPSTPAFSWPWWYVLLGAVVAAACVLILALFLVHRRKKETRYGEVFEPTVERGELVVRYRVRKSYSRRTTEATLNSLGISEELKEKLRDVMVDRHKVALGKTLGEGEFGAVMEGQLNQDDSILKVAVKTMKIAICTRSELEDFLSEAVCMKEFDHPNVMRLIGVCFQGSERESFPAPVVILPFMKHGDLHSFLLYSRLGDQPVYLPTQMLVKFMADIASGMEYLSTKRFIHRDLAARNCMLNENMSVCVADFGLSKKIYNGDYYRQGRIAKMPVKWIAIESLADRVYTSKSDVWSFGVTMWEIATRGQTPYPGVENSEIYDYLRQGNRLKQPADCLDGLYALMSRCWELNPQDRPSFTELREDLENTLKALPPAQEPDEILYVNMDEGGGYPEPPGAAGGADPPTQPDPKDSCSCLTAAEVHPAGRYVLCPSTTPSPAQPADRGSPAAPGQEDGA
The experiment in a line: HotSpot Kinase Assay, AXL.

A further test concerns the target FMS (Homo sapiens, UniProt P07333). The experiment in a line: HotSpot Kinase Assay, FMS.
For a further test, the target named is FLT3 (Homo sapiens, UniProt P36888). The test can be described thus: HotSpot Kinase Assay, FLT3.
For a further test, the target named is FLT1 (Homo sapiens, UniProt P17948). The test can be described thus: HotSpot Kinase Assay, FLT1.
In the next test the target is FLT4 (Homo sapiens, UniProt P35916). The experiment in a line: HotSpot Kinase Assay, FLT4.
Another test deals with MEK5 (Homo sapiens, UniProt Q13163). The experiment in a line: HotSpot Kinase Assay, MEK5.
The target of another test is c-MET (Homo sapiens, UniProt P08581). The test can be described thus: HotSpot Kinase Assay, c-MET.
The next test deals with EPHB4 (Homo sapiens, UniProt P54760). The test can be described thus: HotSpot Kinase Assay, EPHB4.
A further test deals with EPHB2 (Homo sapiens, UniProt P29323). The experiment in a line: HotSpot Kinase Assay, EPHB2.
The next test concerns the target EPHA1 (Homo sapiens, UniProt P21709). The test can be described thus: HotSpot Kinase Assay, EPHA1.
The target in another test is T2, TYRO3/SKY (Homo sapiens, UniProt Q06418).
T2 sequence (Q06418 41-890): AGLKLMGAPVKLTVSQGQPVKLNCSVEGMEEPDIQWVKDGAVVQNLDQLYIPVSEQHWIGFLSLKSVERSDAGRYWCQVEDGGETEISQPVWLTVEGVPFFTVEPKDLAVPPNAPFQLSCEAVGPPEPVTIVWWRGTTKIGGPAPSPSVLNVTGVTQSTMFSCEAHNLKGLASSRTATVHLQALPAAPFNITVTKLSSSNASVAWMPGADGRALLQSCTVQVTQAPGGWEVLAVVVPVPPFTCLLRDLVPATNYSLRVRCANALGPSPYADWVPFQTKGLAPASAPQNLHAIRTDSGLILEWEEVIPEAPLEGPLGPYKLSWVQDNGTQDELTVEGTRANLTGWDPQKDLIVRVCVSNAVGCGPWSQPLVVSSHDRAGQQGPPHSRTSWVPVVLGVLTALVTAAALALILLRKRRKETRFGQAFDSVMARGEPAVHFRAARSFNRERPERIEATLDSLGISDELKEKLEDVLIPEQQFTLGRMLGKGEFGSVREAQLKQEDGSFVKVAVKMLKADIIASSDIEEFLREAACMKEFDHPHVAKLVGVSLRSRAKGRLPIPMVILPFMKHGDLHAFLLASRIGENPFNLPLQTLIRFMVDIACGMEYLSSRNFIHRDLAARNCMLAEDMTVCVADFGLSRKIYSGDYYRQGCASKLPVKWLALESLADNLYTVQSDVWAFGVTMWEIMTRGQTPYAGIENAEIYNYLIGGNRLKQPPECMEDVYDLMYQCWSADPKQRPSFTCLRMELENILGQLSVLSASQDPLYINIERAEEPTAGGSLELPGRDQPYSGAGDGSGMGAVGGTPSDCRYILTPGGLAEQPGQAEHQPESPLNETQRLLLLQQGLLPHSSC
The experiment in a line: HotSpot Kinase Assay, TYRO3/SKY.

In the next test the target is KDR/VEGFR2 (Homo sapiens, UniProt P35968). The experiment in a line: HotSpot Kinase Assay, KDR/VEGFR2.
The next test addresses KHS/MAP4K5 (Homo sapiens, UniProt Q9Y4K4). The experiment in a line: HotSpot Kinase Assay, KHS/MAP4K5.

pIC50: −log10 of the molar value.

Chain of EPHB2 (P29323 19-1055): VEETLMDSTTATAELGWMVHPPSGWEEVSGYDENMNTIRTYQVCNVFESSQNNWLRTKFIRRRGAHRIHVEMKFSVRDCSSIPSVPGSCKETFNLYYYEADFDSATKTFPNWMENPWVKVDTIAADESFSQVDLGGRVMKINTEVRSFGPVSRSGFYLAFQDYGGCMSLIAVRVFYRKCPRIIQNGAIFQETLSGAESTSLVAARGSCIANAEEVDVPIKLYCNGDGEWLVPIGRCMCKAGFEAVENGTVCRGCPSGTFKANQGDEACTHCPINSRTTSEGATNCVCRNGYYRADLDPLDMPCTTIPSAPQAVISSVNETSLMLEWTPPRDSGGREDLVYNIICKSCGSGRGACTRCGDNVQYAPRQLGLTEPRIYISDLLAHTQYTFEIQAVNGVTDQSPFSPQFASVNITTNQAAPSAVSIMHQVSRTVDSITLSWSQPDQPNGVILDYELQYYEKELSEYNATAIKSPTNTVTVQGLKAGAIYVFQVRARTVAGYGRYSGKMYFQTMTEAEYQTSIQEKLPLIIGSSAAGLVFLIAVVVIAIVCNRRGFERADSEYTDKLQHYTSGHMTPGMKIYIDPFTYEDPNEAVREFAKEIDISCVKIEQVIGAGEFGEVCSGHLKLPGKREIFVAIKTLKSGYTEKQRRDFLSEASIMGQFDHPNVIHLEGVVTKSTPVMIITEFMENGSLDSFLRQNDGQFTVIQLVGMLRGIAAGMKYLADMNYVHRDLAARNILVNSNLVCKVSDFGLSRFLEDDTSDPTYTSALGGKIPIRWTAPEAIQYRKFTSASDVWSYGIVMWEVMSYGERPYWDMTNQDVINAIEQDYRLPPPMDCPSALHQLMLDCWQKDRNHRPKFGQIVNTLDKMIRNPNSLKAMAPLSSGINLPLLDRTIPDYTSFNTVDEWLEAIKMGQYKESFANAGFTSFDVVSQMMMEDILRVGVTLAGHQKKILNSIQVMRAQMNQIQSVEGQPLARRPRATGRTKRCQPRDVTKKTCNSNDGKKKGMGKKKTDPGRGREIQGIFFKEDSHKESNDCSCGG
Chain of FLT1 (P17948 27-1338): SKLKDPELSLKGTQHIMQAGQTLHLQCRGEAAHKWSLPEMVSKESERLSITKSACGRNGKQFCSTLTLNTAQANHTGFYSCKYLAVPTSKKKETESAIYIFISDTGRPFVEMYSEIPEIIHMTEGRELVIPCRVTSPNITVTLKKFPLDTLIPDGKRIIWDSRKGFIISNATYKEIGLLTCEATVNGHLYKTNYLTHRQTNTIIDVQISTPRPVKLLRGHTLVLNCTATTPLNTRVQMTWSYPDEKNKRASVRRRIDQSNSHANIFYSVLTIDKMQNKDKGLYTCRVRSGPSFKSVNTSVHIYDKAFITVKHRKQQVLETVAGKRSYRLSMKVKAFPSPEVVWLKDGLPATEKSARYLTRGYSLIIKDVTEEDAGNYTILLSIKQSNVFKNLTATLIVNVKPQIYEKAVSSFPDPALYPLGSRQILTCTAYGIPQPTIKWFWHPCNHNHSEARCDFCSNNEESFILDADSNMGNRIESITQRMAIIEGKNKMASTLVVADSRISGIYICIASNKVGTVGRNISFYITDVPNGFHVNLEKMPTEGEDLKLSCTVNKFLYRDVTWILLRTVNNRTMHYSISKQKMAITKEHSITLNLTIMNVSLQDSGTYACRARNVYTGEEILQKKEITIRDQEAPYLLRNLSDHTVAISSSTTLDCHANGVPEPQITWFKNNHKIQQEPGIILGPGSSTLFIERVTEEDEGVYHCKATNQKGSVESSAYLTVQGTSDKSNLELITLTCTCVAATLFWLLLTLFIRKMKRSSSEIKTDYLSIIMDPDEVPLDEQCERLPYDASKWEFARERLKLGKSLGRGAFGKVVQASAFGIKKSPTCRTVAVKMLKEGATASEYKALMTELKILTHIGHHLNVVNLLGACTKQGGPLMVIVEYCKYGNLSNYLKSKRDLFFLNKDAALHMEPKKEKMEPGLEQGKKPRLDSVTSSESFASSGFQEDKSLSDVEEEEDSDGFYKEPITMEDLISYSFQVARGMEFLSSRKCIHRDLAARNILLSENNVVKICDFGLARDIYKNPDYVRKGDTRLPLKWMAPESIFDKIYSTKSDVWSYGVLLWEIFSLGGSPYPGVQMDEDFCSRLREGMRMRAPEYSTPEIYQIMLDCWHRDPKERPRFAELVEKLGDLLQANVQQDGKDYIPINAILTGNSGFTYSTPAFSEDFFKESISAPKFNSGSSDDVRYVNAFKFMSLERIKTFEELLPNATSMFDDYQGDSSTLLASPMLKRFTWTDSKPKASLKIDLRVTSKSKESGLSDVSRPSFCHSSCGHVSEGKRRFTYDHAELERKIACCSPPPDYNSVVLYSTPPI
Chain of FLT3 (P36888 27-993): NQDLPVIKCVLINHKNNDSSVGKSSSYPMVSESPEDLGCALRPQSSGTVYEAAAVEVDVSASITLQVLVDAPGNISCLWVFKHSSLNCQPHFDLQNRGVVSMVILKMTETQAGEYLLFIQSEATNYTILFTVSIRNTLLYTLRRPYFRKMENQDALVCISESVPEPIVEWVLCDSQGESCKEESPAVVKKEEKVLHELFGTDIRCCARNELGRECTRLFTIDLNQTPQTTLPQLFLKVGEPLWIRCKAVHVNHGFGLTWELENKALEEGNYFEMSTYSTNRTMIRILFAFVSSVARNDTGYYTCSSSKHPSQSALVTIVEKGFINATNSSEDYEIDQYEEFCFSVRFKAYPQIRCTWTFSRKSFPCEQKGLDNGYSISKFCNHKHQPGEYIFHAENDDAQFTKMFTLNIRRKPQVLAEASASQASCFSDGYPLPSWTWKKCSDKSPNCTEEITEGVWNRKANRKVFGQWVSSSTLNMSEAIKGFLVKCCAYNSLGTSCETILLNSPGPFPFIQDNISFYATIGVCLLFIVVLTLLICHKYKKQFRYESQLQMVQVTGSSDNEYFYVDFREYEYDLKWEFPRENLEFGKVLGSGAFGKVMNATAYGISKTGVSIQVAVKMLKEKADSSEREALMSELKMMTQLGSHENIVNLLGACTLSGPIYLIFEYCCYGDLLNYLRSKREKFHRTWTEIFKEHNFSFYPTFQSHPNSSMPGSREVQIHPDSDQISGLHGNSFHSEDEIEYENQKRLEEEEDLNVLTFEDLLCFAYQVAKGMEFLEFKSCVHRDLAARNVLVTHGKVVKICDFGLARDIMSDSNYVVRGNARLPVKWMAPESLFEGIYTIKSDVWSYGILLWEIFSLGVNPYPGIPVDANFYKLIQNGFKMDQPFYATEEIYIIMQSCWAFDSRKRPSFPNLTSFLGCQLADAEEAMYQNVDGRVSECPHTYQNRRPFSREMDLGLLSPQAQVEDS
Chain of KDR/VEGFR2 (P35968 20-1356): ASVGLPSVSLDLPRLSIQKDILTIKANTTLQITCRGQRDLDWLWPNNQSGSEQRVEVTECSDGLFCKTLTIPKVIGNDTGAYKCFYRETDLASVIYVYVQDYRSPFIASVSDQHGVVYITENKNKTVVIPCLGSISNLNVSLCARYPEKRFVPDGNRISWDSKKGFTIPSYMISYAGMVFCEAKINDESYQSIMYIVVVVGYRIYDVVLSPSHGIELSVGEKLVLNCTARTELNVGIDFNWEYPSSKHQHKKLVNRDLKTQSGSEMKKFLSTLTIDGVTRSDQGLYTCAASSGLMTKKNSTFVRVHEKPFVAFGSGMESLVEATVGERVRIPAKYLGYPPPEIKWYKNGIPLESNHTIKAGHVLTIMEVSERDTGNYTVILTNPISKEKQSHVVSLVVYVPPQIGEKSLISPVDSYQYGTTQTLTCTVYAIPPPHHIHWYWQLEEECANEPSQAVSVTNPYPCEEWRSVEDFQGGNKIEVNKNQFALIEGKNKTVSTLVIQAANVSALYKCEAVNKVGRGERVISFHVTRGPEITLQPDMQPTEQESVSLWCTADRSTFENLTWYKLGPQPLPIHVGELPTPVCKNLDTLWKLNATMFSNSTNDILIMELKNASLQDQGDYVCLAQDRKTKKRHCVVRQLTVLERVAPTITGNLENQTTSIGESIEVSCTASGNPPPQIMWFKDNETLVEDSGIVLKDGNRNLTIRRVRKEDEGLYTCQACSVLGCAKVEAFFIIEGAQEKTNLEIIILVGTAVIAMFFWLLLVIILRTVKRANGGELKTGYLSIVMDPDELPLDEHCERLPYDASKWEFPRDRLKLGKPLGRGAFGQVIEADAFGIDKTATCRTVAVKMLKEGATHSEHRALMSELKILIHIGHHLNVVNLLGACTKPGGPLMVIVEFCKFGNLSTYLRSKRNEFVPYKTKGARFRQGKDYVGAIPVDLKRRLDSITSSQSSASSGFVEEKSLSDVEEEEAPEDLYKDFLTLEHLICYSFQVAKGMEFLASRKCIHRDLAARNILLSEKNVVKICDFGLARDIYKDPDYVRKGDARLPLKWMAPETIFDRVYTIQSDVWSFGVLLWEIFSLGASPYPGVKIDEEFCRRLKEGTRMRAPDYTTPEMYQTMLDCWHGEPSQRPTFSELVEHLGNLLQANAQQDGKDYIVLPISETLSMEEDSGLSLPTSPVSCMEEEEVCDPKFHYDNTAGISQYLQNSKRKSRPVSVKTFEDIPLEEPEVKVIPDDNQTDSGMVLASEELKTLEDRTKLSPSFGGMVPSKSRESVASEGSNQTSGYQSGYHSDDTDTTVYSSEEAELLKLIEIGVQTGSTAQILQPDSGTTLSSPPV
Chain of MEK5 (Q13163 whole entry): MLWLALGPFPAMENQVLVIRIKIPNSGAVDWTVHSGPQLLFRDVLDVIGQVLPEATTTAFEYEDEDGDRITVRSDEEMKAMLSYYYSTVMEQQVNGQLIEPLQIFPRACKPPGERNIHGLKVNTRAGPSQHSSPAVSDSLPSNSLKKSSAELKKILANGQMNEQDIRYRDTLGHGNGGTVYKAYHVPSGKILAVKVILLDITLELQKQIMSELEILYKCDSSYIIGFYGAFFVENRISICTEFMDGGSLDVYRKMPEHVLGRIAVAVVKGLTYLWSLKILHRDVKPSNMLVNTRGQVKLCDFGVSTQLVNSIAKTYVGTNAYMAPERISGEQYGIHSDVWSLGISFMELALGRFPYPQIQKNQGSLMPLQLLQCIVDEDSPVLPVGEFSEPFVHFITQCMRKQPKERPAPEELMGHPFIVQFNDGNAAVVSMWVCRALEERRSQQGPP
Experimental for AXL: (§1) Specifically, for each reaction, kinase and substrate were mixed in a pH 7.5 buffer containing 20 mM HEPES, 10 mM MgCl2, 1 mM EGTA [Ethylene glycol-bis(2-aminoethylether)-N,N,N′,N′-tetraacetic acid], 0.02% Brij35, 0.02 mg/mL BSA (Bovine Serum Albumin), 0.1 mM Na3VO4, 2 mM DTT, and 1% DMSO. Compounds were then added to each reaction mixture. After a 20-min incubation, ATP (Sigma-Aldrich) and [γ-^33P] ATP (PerkinElmer) were added at a final total concentration of 100 μM. Reactions were carried out at room temperature for 2 hours and spotted onto P81 ion exchange cellulose chromatography paper (Whatman). […] The percent remaining kinase activity relative to a vehicle-containing (DMSO) kinase reaction was calculated for each kinase/inhibitor pair. […] IC50 values were calculated using Prism 5 (GraphPad).
Experimental for EPHA1: as §1
Experimental for EPHB2: as §1
Experimental for EPHB4: as §1
Experimental for FLT1: as §1
Experimental for FLT3: as §1
Experimental for FLT4: as §1
Experimental for KDR/VEGFR2: as §1
Experimental for KHS/MAP4K5: as §1
Experimental for MEK5: as §1
Experimental for c-MET: as §1

As to `COc1cc2c(Oc3ccc(NC(=O)C4(C(=O)Nc5ccc(F)cc5)CC4)cc3)ccnc2cc1OC(=O)N1CCN(C)CC1` [Compound 1-10], the pIC50 on AXL was over 7.00; on FMS, over 7.00; at FLT3 it was over 7.00; at FLT1, 6.00 to 7.00; against FLT4, 6.00 to 7.00; on MEK5, under 6.00. For the same molecule, the negative-log IC50 (pIC50) at c-MET was over 7.00; against EPHB4 it was 6.00 to 7.00; against EPHB2, 6.00 to 7.00; against EPHA1 it was under 6.00; against TYRO3/SKY, 6.00 to 7.00; on KDR/VEGFR2, 6.00 to 7.00. The pIC50 on KHS/MAP4K5 was under 6.00.

As a reminder, the pIC50 is the IC50 on a negative log10 scale, so that one unit is a factor of ten. Read a low pIC50 as a large IC50.
